{"source": "patent US20200246308A1", "about": "“SYNERGISTIC COMBINATIONS OF UROLITHINS A AND B FOR IMPROVING COGNITIVE CAPACITY OR COGNITIVE FUNCTION” (Natreon, Inc., priority 2018, published 2020)", "key": {"[1]": {"tested_on": "scopolamine induced dementia in rats", "assay": "Y-maze test, scopolamine induced dementia in rats (Study 2)", "type": "in vivo, Charles Foster male albino rats", "settings": "Donepezil 5 mg/kg i.p.; shilajit effect at 100 mg/kg", "method": "2.2. Animal subjects. Inbred Charles Foster male albino rats (130-180 g) were obtained from the Central Animal House, Institute of Medical Sciences (IMS), Banaras Hindu University (BHU), Varanasi, Uttar Pradesh, India. These were certified to be pathogen free and were randomly distributed into different experimental groups. The rats were kept in the departmental animal house at an ambient temperature of 25±1° C. and 45-55% RH, with a 12-h light/dark cycle (lights on 7:00-19:00 h). The animals had free access to standard pellet chow and tap water ad libitum. Experiments were conducted between 9:00 and 14:00 h. The behavioral testing was done during the light phase. Animals were housed in groups and acclimatized for at least one week before using them for experiments. Animals were transported in cage covered by dark cloth to the experimental room. The experimental procedures were in compliance with National Institutes of Health Guide for Care and Use of Laboratory Animals.\nThe rats were pretreated orally for seven days through an orogastric tube with experimental drugs (10, 25 and 50 mg/kg once daily) suspended in 0.3% carboxymethyl cellulose (CMC). The treatment was continued until the end of the experiment procedures (Singh, G. K., Garabadu, D., Muruganadam, A. V., Joshi, V. K., Krishnamurthy, S., “Antidepressant activity of Asparagus racemosus in animal models of depression,” Pharmacol. Biochem. Behav. (2009) 91(3):283-90). Scopolamine was dissolved in water for injection and administered on day 7 after one hour of drug treatment administration. Donepezil (5 mg/kg; i.p.)\nwas used as standard drug. On day 8 the behavioral experiment was performed. The animals were sacrificed and hippocampus was micro-dissected using the coordinates of the rat brain atlas. All control group animals were treated with the 0.3 ml of vehicle (0.3% CMC suspension) equal to the volume of experimental drugs (Ohj a, R., et al., “Asparagus recemosus enhances memory and protects against amnesia in rodent models,” Brain Cogn. (2010) October; 74(1): 1-9).\nSpatial recognition memory, general exploratory behavior, and anxiety-like behavior were assessed by the Y-maze test. Y-maze consists of three similar arms of dimension 50 cm long, 16 cm wide and 32 cm high. In the first trial, the novel arm was blocked and the animal was allowed to move for 15 min in other two arms. In the second trial, the novel arm was opened and the animal was allowed to move for 5 min in all three arms after 4 h of the first trial. The total number of entries in all arms (for 5 min of trial-1 and trial-2) is indicative of general exploration attitude (curiosity). The % entries in known and novel arms for the 5 min period of trial 2 were considered as a measure of spatial recognition memory. Coping strategy to the novel environment was estimated by the percentage of the ratio of time spent in the novel arm to time spent in all arms and in the center of the apparatus during trial 2. The decrease in the coping behavior to the novel environment was considered as an increase in anxiety-like behavior (Krishnamurthy, S., et al., “Risperidone ameliorates post-traumatic stress disorder-like symptoms in modified stress re-stress model,” Neuropharmacology (2013) 75:62-77)."}, "[2]": {"tested_on": "acetylcholine (ACh) level in HIP tissue", "assay": "Acetylcholine level in hippocampal tissue, Amplex Red kit (Example 9D)", "type": "in vivo, Male Wistar rats", "settings": "p.o. 7 days: B 50, A 50, Donepezil 3, B:A 10:50 and 50:50, Shilajit 50 mg/kg", "method": "Drug solution was freshly prepared in 0.3% CMC and administered by oral gavage once a day, for a period of 7 days. Briefly, the whole experiment was conducted for 8 days. Scopolamine (1 mg/kg), a muscarinic receptor antagonist, was dissolved in normal saline (0.9% NaCl) and administered intraperitoneally 1 h after drugs administration on seventh day.\nSample preparation: The animals were killed by decapitation and the brain tissues were dissected out in ice-cold conditions and stored at −80° C. until use. Tissue was homogenized in 1.0 ml of 0.1M perchloric acid with a Potter-Elvehjem homogenizer. The homogenate was kept in the polypropylene tubes for 15 min after which 40 μl of 4M potassium acetate was added to adjust the pH to 4.0 followed by centrifugation for 15 min at 4000×g. Supernatant was used to estimate acetylcholine and AChE activities.\nSamples were prepared as in Example 9C. The amount of acetylcholine in brain tissues was measured using Amplex red assay kit (Molecular Probes, Inc., USA). An acetylcholine standard curve was used in each experiment. Briefly, the reactions are initiated by adding 0.1 ml of control (10 μM H2O2) and tissue homogenates were taken in two separate polypropylene tubes and then 0.1 ml working solution of 400 μM Amplex Red reagent containing 2 U/mL HRP, 0.2 U/mL choline oxidase and 1 U/mL acetylcholinesterase were added to each tube. After incubation for 45 min, the fluorescence was recorded with the help of spectrofluorometer at 530 nm excitation and 590 nm emission wavelengths. The protein content was determined using standard protocol (Lowry, et al., 1951).\nStatistical analyses: The results were expressed as means±Standard Error mean (SEM). The intergroup variation was measured by one-way ANOVA followed by Student-Newman-Keuls test. Two-way followed by Bonferroni test was employed to discover the intergroup variation in Y maze test considering groups and arms as two independent variables. Statistical analysis was done by using Graph Pad prism version 5 (San Diego, Calif.). A level of p<0.05 was accepted as statistically significant."}}, "data": [{"smiles": "COc1cc2c(cc1OC)C(=O)C(CC1CCN(Cc3ccccc3)CC1)C2", "note": "(centres unmarked) [Donepezil, reference compound]", "values": [{"measurement": "Scopolamine-induced altered exploratory behavior (total arm entries)", "setting": "[1]", "result": "reversed this activity"}, {"measurement": "Scopolamine-induced decrease in ACh level in HIP tissue", "setting": "[2]", "result": "the same as 3-OH-DBP (B) (50 mg/kg) group"}]}]}
